Source: US20050009924A1 (priority 2003, published 2005)
Like-named read-outs stand apart in the source and are kept apart here.

Experiments:
[1] = MTT relative viability, PCMV-SEAP (hTERT-BJ1) cells; format: cell-based; conditions: human, stable PCMV-SEAP reporter clone
From the text: Culture media were changed every 3 days. […] The stable clones were selected using G418.

rat glioma C6 cells = assay: Cytotoxicity assay (XTT colorimetric), C6 cells; format: cell-based; conditions: 48 h of drug exposure
[2] = MTT relative viability, PhTERT-SEAP (hTERT-BJ1) cells; conditions: human
human hepatoma G2 cells = assay: Cytotoxicity assay (XTT colorimetric), Hep G2; format: cell-based; conditions: 48 h of drug exposure
[3] = tested on: iron-induced lipid peroxidation in rat brain homogenates; assay: Iron-induced lipid peroxidation in rat brain homogenates; conditions: 10 mM; for Inhibition of LP(10 mM): mean percent inhibition (Table 3); for LP (%) (10 mM): relative percentage of inhibition (Table 1)
[4] = tested on: transcriptional activity of hTERT; assay: SEAP reporter assay of hTERT expression, PhTERT-SEAP (H1299); format: cell-based, human; conditions: for Relative SEAP activity (%): hTERT-H1299
Summary of the method: (§1)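 Cells seeded, grown 24 h at 37° C, refed, then exposed to varying drug amounts for another 24 h. Collected media heated 65° C for 10 min to kill heat-labile phosphatases, mixed with equal SEAP buffer (2 M diethanolamine, 1 mM MgCl2, 20 mM […]) plus 12 mM final p-nitrophenyl phosphate; rate of A405 increase measured.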

[5] = MTT relative viability, PhTERT-SEAP (H1299) cells; conditions: human
CMV promoter = assay: SEAP reporter assay of CMV promoter activity, PCMV-SEAP (hTERT-BJ1); format: cell-based; conditions: Homo sapiens, read-out: Relative SEAP activity (%)
[6] = tested on: transcriptional activity of hTERT; assay: SEAP reporter assay of hTERT expression, PhTERT-SEAP (hTERT-BJ1); format: cell-based, human; conditions: hTERT-BJ1
Summary of the method: as §1

[7] = tested on: hepatitis B virus transfected hepatoma cell lines, HepG 2.2.15 cells; assay: Cytotoxicity assay, 2.2.15 cells; format: cell-based, human; conditions: 48 h of drug exposure
[8] = tested on: non-small-cell lung cancer cells H1299
[9] = Homo sapiens, NCI-H1299, H1299, read-out: Relative SEAP activity (%)
[10] = Homo sapiens, read-out: Relative SEAP activity (%)

CCC(=O)Oc1cccc2c1C(=O)c1cccc(OC(=O)CC)c1C2=O [IIIa, 1,5-Bis(propionyloxy)-anthraquinone]
viability at 48 h, 2.8 µM ([1]; 2.8 μM): 114 ± 16% | viability at 48 h, 28 µM ([1]; 28 μM): 110 ± 12% | viability at 48 h, 280 µM ([1]; 280 μM): 94 ± 21% | IC50 (rat glioma C6 cells; Rattus norvegicus, C6): 21.1 ± 1.6 µM | melting point: 230 to 231 °C | viability at 48 h, 2.8 µM [2]: 99 ± 11.9% | viability at 48 h, 28 µM [2]: 109 ± 8.7% | viability at 48 h, 280 µM [2]: 93 ± 10.8% | IC50 (human hepatoma G2 cells; Homo sapiens, HepG2): 4.1 ± 0.5 µM | Inhibition of LP(10 mM) [3]: −100% | activity at 2.8 µM ([4]; Homo sapiens, NCI-H1299, 2.8 μM, H1299, read-out: Relative SEAP activity (%)): 103 ± 5.8% | activity at 28 µM ([4]; Homo sapiens, NCI-H1299, 28 μM, H1299, read-out: Relative SEAP activity (%)): 107 ± 4.9% | activity at 280 µM ([4]; Homo sapiens, NCI-H1299, 280 μM, H1299, read-out: Relative SEAP activity (%)): 97 ± 3.1% | viability at 48 h, 2.8 µM [5]: 116 ± 8% | viability at 48 h, 28 µM [5]: 116 ± 7.4% | viability at 48 h, 280 µM [5]: 87 ± 6.6% | activity at 2.8 µM (CMV promoter; 2.8 μM): 101 ± 6% | activity at 28 µM (CMV promoter; 28 μM): 112 ± 6% | activity at 280 µM (CMV promoter; 280 μM): 138 ± 12% | activity at 2.8 µM ([6]; Homo sapiens, 2.8 μM, read-out: Relative SEAP activity (%)): 131 ± 7% | activity at 28 µM ([6]; Homo sapiens, 28 μM, read-out: Relative SEAP activity (%)): 152 ± 16.7% | activity at 280 µM ([6]; Homo sapiens, 280 μM, read-out: Relative SEAP activity (%)): 161 ± 12.2%

CC(C)(C)C(=O)Oc1cccc2c1C(=O)c1cccc(OC(=O)C(C)(C)C)c1C2=O [IIId, 1,5-Bis(pivaloyloxy)-anthraquinone]
viability at 48 h, 2.4 µM ([1]; 2.4 μM): 115 ± 7% | viability at 48 h, 24 µM ([1]; 24 μM): 104 ± 8% | viability at 48 h, 240 µM ([1]; 240 μM): 103 ± 11% | IC50 (rat glioma C6 cells; Rattus norvegicus, C6): 12 ± 1.5 µM | melting point: 166 to 167 °C | viability at 48 h, 2.4 µM [2]: 94 ± 3.4% | viability at 48 h, 24 µM [2]: 93 ± 6% | viability at 48 h, 240 µM [2]: 100 ± 9% | IC50 (human hepatoma G2 cells; Homo sapiens, HepG2): 13.7 ± 1.8 µM | Inhibition of LP(10 mM) [3]: −23 ± 1.1^ % | activity at 2.4 µM ([4]; Homo sapiens, NCI-H1299, 2.4 μM, H1299, read-out: Relative SEAP activity (%)): 105 ± 4.9% | activity at 24 µM ([4]; Homo sapiens, NCI-H1299, 24 μM, H1299, read-out: Relative SEAP activity (%)): 78 ± 14.8% | activity at 240 µM ([4]; Homo sapiens, NCI-H1299, 240 μM, H1299, read-out: Relative SEAP activity (%)): 80 ± 10.1% | viability at 48 h, 2.4 µM [5]: 106 ± 8.9% | viability at 48 h, 24 µM [5]: 97 ± 7.1% | viability at 48 h, 240 µM [5]: 70 ± 5.2% | activity at 2.4 µM (CMV promoter; 2.4 μM): 102 ± 10% | activity at 24 µM (CMV promoter; 24 μM): 114 ± 18% | activity at 240 µM (CMV promoter; 240 μM): 141 ± 11% | activity at 2.4 µM ([6]; Homo sapiens, 2.4 μM, read-out: Relative SEAP activity (%)): 147 ± 11.1% | activity at 24 µM ([6]; Homo sapiens, 24 μM, read-out: Relative SEAP activity (%)): 165 ± 18.7% | activity at 240 µM ([6]; Homo sapiens, 240 μM, read-out: Relative SEAP activity (%)): 141 ± 14.4%

Nc1ccccc1Sc1cccc2c1C(=O)c1cccc(Sc3ccccc3N)c1C2=O [IIf, 1,5-Bis(o-aminophenylthio)-Anthraquinone]
viability at 48 h, 2.2 µM ([1]; 2.2 μM): 108 ± 9% | viability at 48 h, 22 µM [1]: 109 ± 4% | viability at 48 h, 220 µM [1]: 48 ± 6% | IC50 (rat glioma C6 cells; Rattus norvegicus, C6): 15.1 ± 1.7 µM | melting point: 283 to 284 °C | viability at 48 h, 2.2 µM [2]: 103 ± 7.9% | viability at 48 h, 22 µM [2]: 107 ± 5.5% | viability at 48 h, 220 µM [2]: 25 ± 3.3% | IC50 (human hepatoma G2 cells; Homo sapiens, HepG2): 34 ± 1.7 µM | LP (%) (10 mM) [3]: 5 ± 0.5% | activity at 2.2 µM [4, 9]: 108 ± 12.2% | activity at 22 µM [4, 9]: 96 ± 8.4% | activity at 220 µM [4, 9]: 59 ± 6.6% | viability at 48 h, 2.2 µM [5]: 94 ± 3.5% | viability at 48 h, 22 µM [5]: 50 ± 3.3% | viability at 48 h, 220 µM [5]: 14 ± 2.5% | activity at 2.2 µM (CMV promoter; 2.2 μM): 103 ± 8% | activity at 22 µM (CMV promoter): 102 ± 10% | activity at 220 µM (CMV promoter): 122 ± 8% | activity at 2.2 µM [6, 10]: 136 ± 17.5% | activity at 22 µM [6, 10]: 141 ± 18.2% | activity at 220 µM [6, 10]: 115 ± 29.7%

COc1ccc(CSc2cccc3c2C(=O)c2cccc(SCc4ccc(OC)cc4)c2C3=O)cc1 [IIj, 1,5-Bis(p-methoxybenzylthio)-Anthraquinone]
viability at 48 h, 2 µM ([1]; 2.0 μM): 116 ± 13% | viability at 48 h, 22 µM [1]: 67 ± 18% | viability at 48 h, 220 µM [1]: 52 ± 7% | IC50 (rat glioma C6 cells; Rattus norvegicus, C6): 25.1 ± 2.8 µM | melting point: 297 to 299 °C | viability at 48 h, 2.2 µM [2]: 119 ± 9.4% | viability at 48 h, 22 µM [2]: 98 ± 13.4% | viability at 48 h, 220 µM [2]: 62 ± 6.4% | IC50 (human hepatoma G2 cells; Homo sapiens, HepG2): 28.6 ± 1.2 µM | LP (%) (10 mM) [3]: 67 ± 2.9% | activity at 2.2 µM [4, 9]: 92 ± 3.3% | activity at 22 µM [4, 9]: 96 ± 8.5% | activity at 220 µM [4, 9]: 88 ± 5.6% | viability at 48 h, 2.2 µM [5]: 89 ± 6.1% | viability at 48 h, 22 µM [5]: 59 ± 5.4% | viability at 48 h, 220 µM [5]: 42 ± 0.3% | activity at 2 µM (CMV promoter; 2.0 μM): 103 ± 15% | activity at 22 µM (CMV promoter): 102 ± 8% | activity at 220 µM (CMV promoter): 100 ± 8% | activity at 2.2 µM [6, 10]: 142 ± 27.7% | activity at 22 µM [6, 10]: 141 ± 22.6% | activity at 220 µM [6, 10]: 118 ± 19.2%

O=C1c2cccc(NCCO)c2C(=O)c2cccc(NCCO)c21 [IVb, 1,5-Bis(ethanolamino)anthraquinone]
IC50 (rat glioma C6 cells): > 20 µM | IC50 (human hepatoma G2 cells): > 20 µM | IC50 [7]: 19.3 µM | Relative MTT viability (%) (hTERT-BJ1 cells; 3 µM): 116 ± 5.6% | Relative MTT viability (%) (hTERT-BJ1 cells; 30 µM): 90 ± 26.9% | Relative MTT viability (%) (hTERT-BJ1 cells; 308 µM): 69 ± 18.7% | Relative SEAP activity (%) ([4]; 3.0 μM): 91 ± 3.9% | Relative SEAP activity (%) ([4]; 30 μM): 88 ± 4.5% | Relative SEAP activity (%) ([4]; 308 μM): 5.7 ± 1.1% | Relative SEAP activity (%) ([6]; 3.0 μM): 45 ± 20.6% | Relative SEAP activity (%) ([6]; 30 μM): 16 ± 13.1% | Relative SEAP activity (%) ([6]; 308 μM): 11 ± 11.6% | Relative MTT viability (%) ([8]; 3 µM): 105 ± 6.3% | Relative MTT viability (%) ([8]; 30 µM): 88 ± 9.1% | Relative MTT viability (%) ([8]; 308 µM): 53 ± 2.8%

O=C1c2cccc(NCCNCCO)c2C(=O)c2cccc(NCCNCCO)c21 [IVe, 1,5-Bis[2-(2-Aminoethylamino)ethanol]anthraquinone]
IC50 (rat glioma C6 cells): 1.17 µM | IC50 (human hepatoma G2 cells): 1.2 ± 0.02 µM | IC50 [7]: 8.35 µM | Relative MTT viability (%) (hTERT-BJ1 cells; 2.4 µM): 84 ± 19.8% | Relative MTT viability (%) (hTERT-BJ1 cells; 24 µM): 60 ± 11.2% | Relative MTT viability (%) (hTERT-BJ1 cells; 242 µM): 44 ± 12.9% | Relative SEAP activity (%) ([4]; 2.4 μM): 87 ± 3.8% | Relative SEAP activity (%) ([4]; 24 μM): 43 ± 5.5% | Relative SEAP activity (%) ([4]; 242 μM): 40 ± 6.7% | Relative SEAP activity (%) ([6]; 2.4 μM): 60 ± 11.6% | Relative SEAP activity (%) ([6]; 24 μM): 40 ± 17.3% | Relative SEAP activity (%) ([6]; 242 μM): 52 ± 19.1% | Relative MTT viability (%) ([8]; 2.4 µM): 97 ± 8.7% | Relative MTT viability (%) ([8]; 24 µM): 37 ± 3.9% | Relative MTT viability (%) ([8]; 242 µM): 11 ± 4.1%

O=C1c2cccc(NCCCO)c2C(=O)c2cccc(NCCCO)c21 [IVh, 1,5-Bis(propanolamino)anthraquinone]
IC50 (rat glioma C6 cells): > 20 µM | IC50 (human hepatoma G2 cells): > 20 µM | IC50 [7]: > 20 µM | Relative MTT viability (%) (hTERT-BJ1 cells; 2.8 µM): 72 ± 7.4% | Relative MTT viability (%) (hTERT-BJ1 cells; 28 µM): 39 ± 10.5% | Relative MTT viability (%) (hTERT-BJ1 cells; 282 µM): 26 ± 15.9% | Relative SEAP activity (%) ([4]; 2.8 μM): 88 ± 4.9% | Relative SEAP activity (%) ([4]; 28 μM): 69 ± 5.4% | Relative SEAP activity (%) ([4]; 282 μM): 33 ± 2.2% | Relative SEAP activity (%) ([6]; 2.8 μM): 41 ± 12.5% | Relative SEAP activity (%) ([6]; 28 μM): 0 ± 22.1% | Relative SEAP activity (%) ([6]; 282 μM): (−3) ± 10.0^ % | Relative MTT viability (%) ([8]; 2.8 µM): 107 ± 5.0% | Relative MTT viability (%) ([8]; 28 µM): 49 ± 3.5% | Relative MTT viability (%) ([8]; 282 µM): 40 ± 10.4%
